Laboratory results reported in the NIST ThermoML archive (doi:10.1016/j.jct.2019.03.011).

Assay: wn = mass fraction of the nth substance listed
Conditions: 101 kPa, Liquid; for viscosity: Falling or rolling sphere viscometry; for speed of sound: Frequency=3 MHz, Single path-length method; for mass density: Vibrating tube method

Cl.NNC(N)=O [semicarbazide hydrochloride] + O
Conditions	mass density, w1 = 0.01 [kg/m3]	mass density, w1 = 0.02 [kg/m3]	speed of sound, w1 = 0.01 [m/s]	speed of sound, w1 = 0.02 [m/s]	viscosity, w1 = 0.01 [mPa·s]	viscosity, w1 = 0.02 [mPa·s]
293.15 K	1002.51	1006.71	1490	1495.8	1.016	1.031
298.15 K	1001.29	1005.43	1503	1509	0.9018	0.9134
303.15 K	999.819	1003.99	1515.1	1520.9	0.8053	0.8152
308.15 K	998.185	1002.31	1525.6	1531.2	0.7251	0.733
313.15 K	996.304	1000.34	1534.3	1540	0.6562	0.6646
318.15 K	994.429	998.472	1540.7	1546.7	0.6021	0.6062
